From ChEMBL document CHEMBL4840354, “Identification of Diarylurea Inhibitors of the Cardiac-Specific Kinase TNNI3K by Designing Selectivity Against VEGFR2, p38α, and B-Raf” (J Med Chem, 2021)

Assays:
[1] = target: T1, Serine/threonine-protein kinase TNNI3K (Homo sapiens, UniProt Q59H18); assay: Inhibition of TNNI3K (unknown origin)
T1 sequence (Q59H18 whole entry): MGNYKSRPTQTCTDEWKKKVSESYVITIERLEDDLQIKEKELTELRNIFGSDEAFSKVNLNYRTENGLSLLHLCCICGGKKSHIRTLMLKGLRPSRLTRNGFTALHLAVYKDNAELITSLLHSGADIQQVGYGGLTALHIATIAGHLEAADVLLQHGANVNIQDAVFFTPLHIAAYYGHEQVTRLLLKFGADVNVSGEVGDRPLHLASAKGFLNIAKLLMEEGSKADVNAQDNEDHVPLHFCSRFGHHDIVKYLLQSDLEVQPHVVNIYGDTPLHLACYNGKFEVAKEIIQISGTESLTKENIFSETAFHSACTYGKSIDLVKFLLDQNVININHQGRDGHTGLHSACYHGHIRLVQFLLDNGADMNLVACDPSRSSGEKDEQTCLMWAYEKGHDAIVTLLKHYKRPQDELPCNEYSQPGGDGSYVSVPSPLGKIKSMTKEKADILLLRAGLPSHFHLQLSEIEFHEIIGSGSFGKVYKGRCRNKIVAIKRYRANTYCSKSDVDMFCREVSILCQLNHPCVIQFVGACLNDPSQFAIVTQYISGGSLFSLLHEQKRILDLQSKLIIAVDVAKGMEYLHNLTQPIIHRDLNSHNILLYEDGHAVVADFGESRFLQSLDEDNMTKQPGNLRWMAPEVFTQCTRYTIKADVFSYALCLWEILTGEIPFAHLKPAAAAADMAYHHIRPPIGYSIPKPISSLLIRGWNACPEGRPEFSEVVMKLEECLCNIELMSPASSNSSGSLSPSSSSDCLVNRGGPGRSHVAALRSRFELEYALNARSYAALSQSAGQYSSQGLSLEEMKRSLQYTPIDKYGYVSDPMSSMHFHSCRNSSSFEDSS

[2] = target: T1, Serine/threonine-protein kinase TNNI3K; assay: Inhibition of human myc-TNNI3K expressed in HEK-MSR2 cells assessed as reduction in TNNI3K autophosphorylation preincubated for 30 mins followed by pervanadate addition and measured after 20 mins by DELFIA; type: cell-based
[3] = target: Vascular endothelial growth factor receptor 2 (Homo sapiens, UniProt P35968); assay: Inhibition of GST-6His tagged VEGFR2 (unknown origin) using biotin-aminohexyl-EEEEYFELVAKKKK-NH2 peptide substrate incubated for 90 mins by HTRF assay
Sequence of Vascular endothelial growth factor receptor 2 (P35968 whole entry): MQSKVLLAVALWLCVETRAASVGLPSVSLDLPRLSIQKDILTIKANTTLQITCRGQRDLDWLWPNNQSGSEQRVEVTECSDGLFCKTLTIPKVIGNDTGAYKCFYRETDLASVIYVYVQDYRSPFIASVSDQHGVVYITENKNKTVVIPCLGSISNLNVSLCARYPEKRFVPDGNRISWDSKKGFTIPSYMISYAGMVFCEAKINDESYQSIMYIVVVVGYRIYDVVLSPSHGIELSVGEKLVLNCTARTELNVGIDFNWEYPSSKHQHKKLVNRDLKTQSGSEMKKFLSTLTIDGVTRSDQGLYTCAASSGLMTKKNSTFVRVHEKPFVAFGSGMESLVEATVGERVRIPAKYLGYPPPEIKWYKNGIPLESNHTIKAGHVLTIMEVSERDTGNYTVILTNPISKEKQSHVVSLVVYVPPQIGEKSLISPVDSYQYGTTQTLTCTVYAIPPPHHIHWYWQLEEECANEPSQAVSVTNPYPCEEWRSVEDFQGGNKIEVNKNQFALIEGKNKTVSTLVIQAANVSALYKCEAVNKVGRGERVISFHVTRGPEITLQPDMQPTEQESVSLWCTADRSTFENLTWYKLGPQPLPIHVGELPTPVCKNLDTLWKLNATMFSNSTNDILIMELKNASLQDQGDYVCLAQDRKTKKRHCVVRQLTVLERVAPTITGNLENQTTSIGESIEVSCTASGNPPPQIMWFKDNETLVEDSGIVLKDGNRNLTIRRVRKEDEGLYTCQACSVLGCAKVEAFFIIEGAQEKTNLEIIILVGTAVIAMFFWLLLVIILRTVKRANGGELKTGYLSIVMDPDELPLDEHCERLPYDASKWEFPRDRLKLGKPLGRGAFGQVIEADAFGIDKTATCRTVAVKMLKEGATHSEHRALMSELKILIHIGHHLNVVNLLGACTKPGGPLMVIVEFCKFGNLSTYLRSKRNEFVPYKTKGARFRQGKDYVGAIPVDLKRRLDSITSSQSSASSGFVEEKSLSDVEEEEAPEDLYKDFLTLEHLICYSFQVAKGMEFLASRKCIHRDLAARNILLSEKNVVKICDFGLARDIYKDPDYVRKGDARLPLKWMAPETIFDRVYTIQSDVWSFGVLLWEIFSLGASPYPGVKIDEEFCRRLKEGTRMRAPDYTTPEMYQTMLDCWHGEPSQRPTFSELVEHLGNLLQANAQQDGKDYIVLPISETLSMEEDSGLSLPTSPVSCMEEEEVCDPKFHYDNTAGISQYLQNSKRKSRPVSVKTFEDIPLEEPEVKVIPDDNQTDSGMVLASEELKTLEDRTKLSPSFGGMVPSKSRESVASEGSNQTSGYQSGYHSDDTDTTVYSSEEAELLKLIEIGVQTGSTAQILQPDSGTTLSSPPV

[4] = target: Mitogen-activated protein kinase 14 (Homo sapiens, UniProt Q16539); assay: Inhibition of p38alpha (unknown origin)
Sequence of Mitogen-activated protein kinase 14 (Q16539 whole entry): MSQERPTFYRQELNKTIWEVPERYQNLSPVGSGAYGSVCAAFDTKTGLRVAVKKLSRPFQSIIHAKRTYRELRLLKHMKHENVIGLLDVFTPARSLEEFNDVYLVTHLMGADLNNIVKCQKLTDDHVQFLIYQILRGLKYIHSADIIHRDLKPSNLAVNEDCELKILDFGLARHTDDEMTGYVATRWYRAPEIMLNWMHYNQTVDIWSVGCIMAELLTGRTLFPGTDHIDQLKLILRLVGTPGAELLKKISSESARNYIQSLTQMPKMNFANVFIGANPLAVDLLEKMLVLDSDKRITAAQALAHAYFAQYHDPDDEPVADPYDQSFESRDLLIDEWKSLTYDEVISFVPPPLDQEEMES

[5] = target: Serine/threonine-protein kinase B-raf (Homo sapiens, UniProt P15056); assay: Inhibition of B-Raf (unknown origin)
Sequence of Serine/threonine-protein kinase B-raf (P15056 whole entry): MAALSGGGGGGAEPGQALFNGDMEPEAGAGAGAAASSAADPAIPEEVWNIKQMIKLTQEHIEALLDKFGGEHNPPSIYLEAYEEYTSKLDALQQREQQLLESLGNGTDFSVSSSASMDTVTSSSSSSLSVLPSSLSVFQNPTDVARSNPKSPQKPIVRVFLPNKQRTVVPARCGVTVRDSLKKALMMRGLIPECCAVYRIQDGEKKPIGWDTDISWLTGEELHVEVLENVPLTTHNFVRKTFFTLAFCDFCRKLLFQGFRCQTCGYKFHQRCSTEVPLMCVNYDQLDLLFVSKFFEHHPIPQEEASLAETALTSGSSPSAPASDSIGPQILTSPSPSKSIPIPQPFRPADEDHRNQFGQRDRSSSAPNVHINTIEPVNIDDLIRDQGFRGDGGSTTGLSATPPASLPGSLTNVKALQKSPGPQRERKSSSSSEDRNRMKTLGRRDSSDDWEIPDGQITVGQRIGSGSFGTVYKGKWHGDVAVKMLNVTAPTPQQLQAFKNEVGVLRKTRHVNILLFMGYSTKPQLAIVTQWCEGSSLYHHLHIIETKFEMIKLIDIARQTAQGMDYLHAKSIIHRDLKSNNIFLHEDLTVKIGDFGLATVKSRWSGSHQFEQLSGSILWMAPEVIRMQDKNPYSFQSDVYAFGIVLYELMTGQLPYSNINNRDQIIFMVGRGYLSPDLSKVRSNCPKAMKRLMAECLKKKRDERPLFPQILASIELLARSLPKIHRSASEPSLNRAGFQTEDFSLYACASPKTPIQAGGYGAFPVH

Homo sapiens [6] = species: Homo sapiens; assay: Selectivity index, ratio of IC50 for inhibition of VEGFR2 (unknown origin) to IC50 for inhibition of TNNI3K (unknown origin)
Homo sapiens [7] = species: Homo sapiens; assay: Selectivity index, ratio of IC50 for inhibition of p38alpha (unknown origin) to IC50 for inhibition of TNNI3K (unknown origin)
[8] = Permeability of compound incubated for 2 hrs by liquid chromatography analysis; type: ADME; conditions: read-out: permeability
[9] = Dose normalized AUC in po dosed rat administered as cassette dose; type: ADME, organism-based; conditions: in vivo
[10] = Half life in po dosed rat administered as cassette dose; type: ADME, organism-based; conditions: in vivo
[11] = target: T1, Serine/threonine-protein kinase TNNI3K; assay: Binding affinity to full length human His-MBP-TNNI3K assessed as off-rate constant in presence of rhodamine green labeled GW805818X by fluorescence competitive binding assay
[12] = target: T2, Serine/threonine-protein kinase TNNI3K (Mus musculus, UniProt Q5GIG6); assay: Binding affinity to full length mouse His-MBP-TNNI3K assessed as off-rate constant in presence of rhodamine green labeled GW805818X by fluorescence competitive binding assay
T2 sequence (Q5GIG6 whole entry): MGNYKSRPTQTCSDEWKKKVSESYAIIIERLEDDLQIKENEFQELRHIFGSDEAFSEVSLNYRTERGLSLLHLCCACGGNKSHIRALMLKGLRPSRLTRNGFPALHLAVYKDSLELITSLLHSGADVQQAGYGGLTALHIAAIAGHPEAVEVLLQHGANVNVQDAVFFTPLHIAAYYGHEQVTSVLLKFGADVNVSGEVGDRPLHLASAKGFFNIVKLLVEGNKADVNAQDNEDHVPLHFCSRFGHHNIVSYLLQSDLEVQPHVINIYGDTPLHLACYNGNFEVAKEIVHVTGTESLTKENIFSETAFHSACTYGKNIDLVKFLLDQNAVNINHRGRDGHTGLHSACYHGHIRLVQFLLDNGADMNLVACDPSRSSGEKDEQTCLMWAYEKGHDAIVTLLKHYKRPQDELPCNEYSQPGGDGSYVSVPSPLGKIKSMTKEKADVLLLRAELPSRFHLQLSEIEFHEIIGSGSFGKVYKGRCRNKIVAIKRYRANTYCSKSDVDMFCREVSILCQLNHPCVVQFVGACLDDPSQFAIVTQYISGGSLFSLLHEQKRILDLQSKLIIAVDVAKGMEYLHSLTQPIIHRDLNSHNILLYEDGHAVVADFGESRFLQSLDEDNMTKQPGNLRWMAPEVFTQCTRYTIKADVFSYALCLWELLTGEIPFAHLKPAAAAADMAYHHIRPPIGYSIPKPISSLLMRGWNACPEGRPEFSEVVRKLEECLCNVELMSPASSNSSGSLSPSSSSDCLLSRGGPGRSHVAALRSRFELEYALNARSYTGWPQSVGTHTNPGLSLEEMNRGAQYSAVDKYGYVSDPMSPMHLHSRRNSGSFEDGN

[13] = target: Voltage-gated inwardly rectifying potassium channel KCNH2 (Homo sapiens, UniProt Q12809); assay: Inhibition of human ERG expressed in HEK293 cells; type: cell-based
Sequence of Voltage-gated inwardly rectifying potassium channel KCNH2 (Q12809 whole entry): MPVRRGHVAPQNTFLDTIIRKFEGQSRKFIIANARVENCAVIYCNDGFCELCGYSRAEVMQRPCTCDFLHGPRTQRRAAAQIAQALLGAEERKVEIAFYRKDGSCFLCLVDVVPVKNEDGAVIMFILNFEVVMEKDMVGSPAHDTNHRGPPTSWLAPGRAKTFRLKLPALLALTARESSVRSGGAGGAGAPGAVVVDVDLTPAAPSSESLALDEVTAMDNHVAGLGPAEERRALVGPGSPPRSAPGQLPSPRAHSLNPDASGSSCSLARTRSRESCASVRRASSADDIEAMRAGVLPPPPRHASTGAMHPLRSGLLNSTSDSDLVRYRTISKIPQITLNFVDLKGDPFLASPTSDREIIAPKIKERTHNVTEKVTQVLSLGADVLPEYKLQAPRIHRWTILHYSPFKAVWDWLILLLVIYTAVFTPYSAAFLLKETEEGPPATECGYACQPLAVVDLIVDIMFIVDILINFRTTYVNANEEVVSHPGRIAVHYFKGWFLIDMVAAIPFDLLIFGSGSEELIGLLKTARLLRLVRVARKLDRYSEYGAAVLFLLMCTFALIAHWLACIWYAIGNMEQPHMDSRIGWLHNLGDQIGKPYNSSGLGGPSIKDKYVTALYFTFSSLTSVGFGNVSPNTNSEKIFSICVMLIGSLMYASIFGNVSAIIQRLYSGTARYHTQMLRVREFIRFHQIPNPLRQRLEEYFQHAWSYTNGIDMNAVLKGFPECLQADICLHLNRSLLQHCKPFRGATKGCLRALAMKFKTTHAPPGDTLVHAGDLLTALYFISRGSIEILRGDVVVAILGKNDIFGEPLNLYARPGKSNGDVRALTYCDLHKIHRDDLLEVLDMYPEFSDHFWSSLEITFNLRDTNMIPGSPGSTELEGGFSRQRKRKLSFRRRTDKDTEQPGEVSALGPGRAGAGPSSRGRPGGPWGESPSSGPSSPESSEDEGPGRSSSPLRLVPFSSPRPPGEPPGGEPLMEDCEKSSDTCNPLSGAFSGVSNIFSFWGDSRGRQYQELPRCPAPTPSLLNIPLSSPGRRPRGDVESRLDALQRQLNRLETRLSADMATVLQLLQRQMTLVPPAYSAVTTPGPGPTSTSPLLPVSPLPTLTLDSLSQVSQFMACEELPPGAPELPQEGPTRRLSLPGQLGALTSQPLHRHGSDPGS

[14] = target: T3, Serine/threonine-protein kinase TNNI3K (Homo sapiens) (UniProt Q59H18)
T3 sequence (whole entry): T1 sequence (Q59H18 whole entry)
Description: Binding affinity to full length human His-MBP-TNNI3K assessed as half life in presence of rhodamine green labeled GW805818X by fluorescence competitive binding assay

[15] = target: T4, Serine/threonine-protein kinase TNNI3K (Mus musculus) (UniProt Q5GIG6)
T4 sequence (whole entry): T2 sequence (Q5GIG6 whole entry)
Description: Binding affinity to full length mouse His-MBP-TNNI3K assessed as half life in presence of rhodamine green labeled GW805818X by fluorescence competitive binding assay

| IC50 [1] | IC50 [2] | IC50 [3] | IC50 [4] | IC50 [5] | Ratio IC50 (Homo sapiens [6]) | Ratio IC50 (Homo sapiens [7]) | Papp at 2 h [8] | AUC/dose [9] | half-life [10] | Ki [11] | Ki [12] | T1/2 [14] | T1/2 [15] | Structure (SMILES) | IC50 [13] |
| --- | --- | --- | --- | --- | --- | --- | --- | --- | --- | --- | --- | --- | --- | --- | --- |
| 10 nM | 100 nM | 400 nM | 800 nM | > 2000 nM | 40 | 80 | 7.4 ×10⁻⁶ cm/s | 3.8 kg·h/L | 5.4 h | 0.54 nM | 13 nM | 1.3 h | 0.417 h | CNc1cc(Oc2c(Cl)cc(NC(=O)Nc3cccc(C(F)(F)F)c3)cc2Cl)ncn1 | > 31600 nM |
| 25 nM | 16 nM | 7.9 nM | 1000 nM | 1600 nM | 0.32 | 40 | 24.5 ×10⁻⁶ cm/s | 0.4 kg·h/L | 3.2 h | – | – | – | – | Nc1cc(Oc2ccc(NC(=O)Nc3cccc(C(F)(F)F)c3)cc2)ncn1 | – |
| ≤ 10 nM | 100 nM | 2500 nM | 1600 nM | > 2000 nM | > 250 | > 160 | 5.9 ×10⁻⁶ cm/s | 1.2 kg·h/L | 3.7 h | – | – | – | – | CCc1cc(NC(=O)Nc2cccc(C(F)(F)F)c2)cc(Cl)c1Oc1cc(NC)ncn1 | – |
| 40 nM | 20 nM | 25 nM | 1000 nM | 500 nM | 0.63 | 25 | 23 ×10⁻⁶ cm/s | 3.8 kg·h/L | 3.2 h | – | – | – | – | CNc1cc(Oc2ccc(NC(=O)Nc3cccc(C(F)(F)F)c3)cc2)ncn1 | – |
